Data as given in US6605297B2, “Substances having antiobese and visceral fat-reducing functions and utilization thereof” (Janiftec, Inc., priority 1998, dated 2003).

Tests used:
UCP = assay: Amount of UCP in interscapular BAT mitochondria fraction by western blotting; type: in vivo, rat; settings: Example 3; 0.5% in feed, rats 7 weeks; relative value, control group = 100
Procedure: (§1) After being reared for 7 weeks, the laboratory animals were fasted for 20 hours. […] Then mesenteric fat, perinephric fat, peritesticular fat, and interscapular brown fat were recovered and weighed and the brown fat was submitted to determinations of the amount of UCP. The plasma was obtained from blood by conventional methods and serum triglycerides, cholesterol, and phospholipid concentrations were determined. The amount of UCP was determined by the following method.
Interscapular BAT extracted from rats was homogenized with 200 mM sucrose (comprising 10 mM Tris-HCl at pH of 7.5; 2 mM EDTA), centrifuged for 5 minutes at 3,100 rpm and 4° C. using a centrifugator on a cold table, and the supernatent thereof was further centrifuged for 10 minutes at 12,000 rpm and 4° C. The precipitate thus obtained (mitochondria fraction) was served as the sample.
Polyacrylamide gel electrophoresis was performed with 11% separated gel, and 50 μg sample protein were submitted to analysis from each lane. As the electrophoresis conditions, migration for 10 minutes at 100 V and then for 1 hour at 200 V were adopted. […] After rinsing, the UCP band was detected on X-ray film with a chemiluminescence method detection reagent (Dupont). The darkness of the band on the film was read with a scanner and digitized by a computer. […]

[1] = 7-week feeding study in rats: body weight, feed ingested, symptoms; type: in vivo, Sprague-Dawley male rats; settings: Example 3; 0.5% in feed plus 8.5% lard, rats 7 weeks
Procedure: (§2) After acclimation for 1 week on basic feed (F-2, Funabashi Farms Co., Ltd.) using 7-week-old Sprague-Dawley male rats, 7 rats per group were placed in the following 3 groups so that average body weight of each group would be the same and reared for 7 weeks. Rearing environment was adjusted to a temperature of 22 to 24° C. and humidity of 50 to 60%, with 12 hours of light and dark each (light time: 8:00 to 20:00, dark time: 20:00 to 8:00). Feed was supplied in restricted amounts and body weight was determined each week.
(§3) The components, including proteins, sugars, etc., were the same and the lipids were adjusted to 10% for each group. […]
as §1
With the exception that 8.5% lard was added to 0.5% starting DHA ethyl ester and served as the control group, and 8.5% lard was added to 0.5% coupled DHA ethyl ester and served as the coupled DHA ethyl group, the feed was in accordance with Example 1. […]

[2] = test system: mesenteric fat, perinephric fat, peritesticular fat, interscapular brown fat; assay: 7-week feeding study in rats: weight of mesenteric, perinephric, peritesticular and interscapular brown fat; type: in vivo, Sprague-Dawley male rats; settings: Example 3; 0.5% in feed plus 8.5% lard, rats 7 weeks
Procedure: as §2, §3, §1
Then the mesenteric fat, perinephric fat, peritesticular fat, and interscapular brown fat were collected and weight was determined, and the brown fat was submitted to determinations of the amount of UCP.

Structure (SMILES): CC/C=C\C/C=C\C/C=C\C/C=C\C/C=C\C/C=C\CCC(=O)OCC [Control group, DHA ethyl ester]
- UCP (UCP): 100 ± 8
- Body weight [1]: 515.8 ± 29 b g
- Brown fat per body weight [2]: 0.073 ± 0.015%
- Mesenteric fat per body weight [2]: 1.01 ± 0.20 b %
- Total intra-abdominal fat per body weight [2]: 5.29 ± 0.93 b %
